Reference: PubChem BioAssay (NCI)
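The compound was tested at five concentrations on cells cultured in 96-well plates, with a 48-hour exposure period. GI50 marks 50% less growth. TGI is the concentration that stops growth completely.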

Columns and labels:
Test in all cases: DTP human tumour cell line panel, 48 h
UACC-257 melanoma = test system: UACC-257 melanoma
HL-60(TB) leukemia = test system: HL-60(TB) leukemia
EKVX NSCLC = test system: EKVX NSCLC
NCI-H460 lung = test system: NCI-H460 lung
ACHN renal = test system: ACHN renal
SN12C renal = test system: SN12C renal
UACC-62 melanoma = test system: UACC-62 melanoma
U251 CNS = test system: U251 CNS
TK-10 renal = test system: TK-10 renal
MALME-3M melanoma = test system: MALME-3M melanoma

Structure (SMILES) | GI50 (UACC-257 melanoma) [µM] | TGI (UACC-257 melanoma) [µM] | GI50 (HL-60(TB) leukemia) [µM] | TGI (HL-60(TB) leukemia) [µM] | GI50 (EKVX NSCLC) [µM] | TGI (EKVX NSCLC) [µM] | GI50 (NCI-H460 lung) [µM] | TGI (NCI-H460 lung) [µM] | GI50 (ACHN renal) [µM] | TGI (ACHN renal) [µM] | GI50 (SN12C renal) [µM] | TGI (SN12C renal) [µM] | GI50 (UACC-62 melanoma) [µM] | TGI (UACC-62 melanoma) [µM] | GI50 (U251 CNS) [µM] | TGI (U251 CNS) [µM] | GI50 (TK-10 renal) [µM] | TGI (TK-10 renal) [µM] | GI50 (MALME-3M melanoma) [µM] | TGI (MALME-3M melanoma) [µM]
CN(C)CCCN=c1cc2c(=O)n(CCCN(C)C)c(=O)c3c(NCCCN(C)C)cc4c(O)n(CCCN(C)C)c(=O)c1c4c3-2 | 2.19 | 7.35 | 15.1 | 60.5 | 3.06 | 21.3 | 0.395 | 1.86 | 0.736 | 12.4 | 1.73 | 30.9 | 1.75 | 4.86 | 0.418 | 11 | 1.55 | 5.95 | 1.27 | 5.59
Cc1ccc(NC(=O)CC/C(CC(=O)c2ccc(Cl)cc2)=N\NC(=O)C(=O)NN)cc1C | – | > 100 | – | > 100 | – | > 100 | – | > 100 | – | > 100 | – | > 100 | – | > 100 | – | > 100 | – | > 100 | – | > 100
N#C/C(=C/C=C/c1ccccc1)S(=O)c1ccccc1 (stereo not given) | 0.845 | 2.41 | 0.288 | 2.25 | 0.899 | 2.46 | 0.506 | 2.92 | 0.2 | 0.462 | 0.373 | 1.63 | 0.435 | 1.89 | 0.483 | 1.7 | 0.501 | 1.85 | 0.796 | 2.5
COc1cc([C@@H]2c3cc4c(cc3[C@@H](NCc3ccc(C#N)cc3)C3COC(=O)[C@@H]32)OCO4)cc(OC)c1O (stereo not given in full) | – | 33.9 | – | 0.771 | – | 5.76 | – | 1.77 | – | 1.55 | – | 3.02 | – | 2.75 | – | 1.55 | – | 3.76 | – | 4.9
CN(C1=NS(=O)(=O)N=C(N(C)c2ccccc2)O1)c1ccccc1 | – | 57.4 | – | 33.7 | – | 48.6 | – | 47.7 | – | 31.7 | – | 41.2 | – | 28 | – | 36.8 | – | 80.2 | – | 49.7
C/C(=N\NS(=O)(=O)c1ccc(C)cc1)c1c(O)cc(C)oc1=O | – | > 100 | – | > 100 | – | > 100 | – | > 100 | – | > 100 | – | > 100 | – | > 100 | – | > 100 | – | > 100 | – | > 100
O=C(O)CN(c1ccccc1)S(=O)(=O)c1ccc(Cl)cc1 | – | > 100 | – | > 100 | – | > 100 | – | > 100 | – | > 100 | – | > 100 | – | > 100 | – | > 100 | – | > 100 | – | > 100
O=C1/C(=C/c2ccccc2Br)COc2ccc(O)c(O)c21 | 1.53 | 5.17 | 0.379 | 2.78 | 2.09 | 5.23 | 2.13 | 5.64 | 1.32 | 3.09 | 0.937 | 3.62 | 1.55 | 3.29 | 1.09 | 2.33 | 2.01 | 4.09 | 1.28 | 3.27
O=S1c2ccccc2N=C(c2ccc(Cl)cc2)CC1c1cccs1 (stereo not given) | – | 63.5 | – | 45.1 | – | > 100 | – | > 100 | – | > 100 | – | 38 | – | 64.1 | – | 28.9 | – | > 100 | – | > 100
N#CC(C(=O)CCC(=O)Nc1ccc(Cl)cc1)c1ccccc1Cl (stereo not given) | – | > 100 | – | > 100 | – | > 100 | – | > 100 | – | > 100 | – | > 100 | – | > 100 | – | > 100 | – | > 100 | – | > 100
CCC(c1ccc(OC)cc1)C(CC)c1ccc(O)c(CN2CCCC2)c1 (stereo not given) | 2.1 | 4.7 | 2.14 | 4.76 | 5.07 | 19.3 | 3.41 | 11.6 | 4.57 | 18.5 | 5.61 | 20.2 | 2.07 | 4.97 | 2.25 | 5.67 | 2.35 | 10.8 | 1.76 | 3.95
COc1cc2ccnc3c2c(c1OC)CC1CC(O)C(OC)CC31 (stereo not given) | – | > 100 | – | > 100 | – | 88.6 | – | > 100 | – | > 100 | – | > 100 | – | > 100 | – | > 100 | – | > 100 | – | > 100
O=C1NC(=O)C(=O)C(c2nc3ccccc3s2)C1=O | – | > 100 | – | > 100 | – | > 100 | – | > 100 | – | > 100 | – | > 100 | – | > 100 | – | > 100 | – | > 100 | – | > 100
CNC(=O)c1cncc(/C=C/c2c(C)cccc2C)c1 | > 25 | > 25 | > 25 | > 25 | > 25 | > 25 | > 25 | > 25 | 16.3 | > 25 | 20.6 | > 25 | > 22.5 | > 25 | > 25 | > 25 | > 20.9 | > 25 | 16 | > 25
O=C1/C(=C/c2ccccc2)CN(CCC(=O)N2C/C(=C\c3ccccc3)C(=O)/C(=C/c3ccccc3)C2)C/C1=C\c1ccccc1 | 24.6 | > 100 | 13.7 | > 100 | 18.2 | 67.5 | 35.9 | > 100 | 8.92 | 30.3 | 17.3 | > 95.9 | 7.19 | 33.9 | 1.29 | 11.3 | 18.3 | 43.9 | 22.3 | 64.3
CCC1CCCCN1C(=S)N/N=C(\C)c1ccccn1 (stereo not given) | < 0.0215 | 1.68 | 0.0429 | 3.91 | 0.0728 | 4.8 | 0.0479 | 3.17 | < 0.0175 | 1.67 | 0.114 | 3.87 | 0.123 | 1.92 | < 0.0172 | 6.16 | 0.191 | 2.56 | < 0.0325 | 2.03
